Data on five compounds can be found in US7998985B2, “1,5-diphenyl-3-pyridinylamino-1,5-dihydropyrrolidin-2-one as CB1 receptor modulator” (Eli Lilly and Company, priority 2006, dated 2011).

Series [1] deals with alcohol-preferring (P) rats. Briefly: 12-hour ethanol consumption in alcohol-preferring rats (P rats). It is filed as in vivo, rat. The note with it: female P rats, 15% (v/v) ethanol, continuous free access; Example 2 given p.o. The source says: Evaluate Example 2 for its ability to reduce consumption of ethanol in rats selectively bred for high oral ethanol intake (P rats). In addition, study the effects of Example 2 under conditions in which effects of the compound on motivation or the control of behavior by ethanol could be assessed.
Methods: Study the effects of Example 2 on female, alcohol-preferring (P) rats on alcohol consumption under a continuous free access paradigm. For comparative purposes test the standard opioid antagonist naltrexone. Monitor voluntary consumption of 15% (v/v) ethanol. Suspend Example 2 in vehicle (1% CMC, 0.5% SLS, 0.08% povidone, 0.05% Dow Corning antifoam 1510 US) and give p.o. 3 hours prior to the onset of the dark cycle. In addition, measure locomotor activity via infrared sensor.

The subject of a further series is NIH male Swiss mice. The series is described as follows: Forced Swim Test (FST). It is filed as in vivo, mouse. The note with it: 90 minute pre-treatment, lowest dose with significant decrease in immobility time. The procedure:
Receive NIH male Swiss mice (Harlan Sprague-Dawley, weight 20-25 g) 7 to 10 days prior to testing. House 12 mice per cage. Test only animals that weigh 25-30 g. On the day of testing, bring animals to the testing room at least 1 hour prior to dosing. When dosing starts, dose at 6-8 minute intervals between each dose with each mouse receiving either Administer vehicle (1% CMC, 0.5% SLS, 0.08% povidone, 0.05% antifoam) or Example 2, p.o. Next, place mice in a clean cage (4 mice per cage). After 90 minutes, start the test following a 90 minute pre-treatment with Example 2 or vehicle.
Mice FST: Place NIH-Swiss mice in clear plastic cylinders (diameter: 10 cm; height: 25 cm) filled to 6 cm with 22-25° C. water for six minutes. Record the duration of immobility during the last 4 minutes of the six-minute trial. A mouse is regarded as immobile when floating motionless or making only those movements necessary to keep its head above the water. Analyze data by ANOVA with a post-hoc Dunnett's test (alpha=0.05; JMP). Record the minimum effective dose (MED) as the lowest dose of compound at which statistically significant decrease in immobility time is observed versus a vehicle control.

A short description of another series: Bioavailability, dog. Particulars: in vivo. An excerpt:
(§1) Methods for accessing bioavailability are well appreciated in the art. One such reference is Medicinal Research Reviews Vol. 21 No. 5 382-396 (2001).

Another series in a line: Bioavailability, rat. Particulars: in vivo.
Source text: as §1

In a further series the target is T1, human CB2 receptor (Homo sapiens, UniProt P34972).
T1 construct: purchased Applied Cell Sciences, Gaithersburg, Md; PerkinElmer Life Sciences, Boston, Mass; host or cells: Sf9 insect cells (recombinant expression), membranes
The series is described as follows: Antibody-capture SPA GTP-γ-35S binding, antagonist/inverse agonist mode, human CB2 (Sf9 membranes). Type of series: biochemical. Particulars: Table 3. Background: Binding of GTPγS marks nucleotide exchange on a G protein.

A further series has as its target hCB1 (Homo sapiens, UniProt P21554). Briefly: hCB1 SPA GTPγ35S Sf9 membranes, antagonist mode (Table 3). Type of series: biochemical. Also on record: purchased Applied Cell Sciences, Gaithersburg, Md; PerkinElmer Life Sciences, Boston, Mass; host or cells: Sf9 insect cells (recombinant expression), membranes. The note with it: hCB1 SPA GTPγ35S Sf9 Mem 22.7 ug protein/well Antagonist; read-out: Inverse Agonist Potency CB1 (Kb).

T1 sequence (P34972 whole entry): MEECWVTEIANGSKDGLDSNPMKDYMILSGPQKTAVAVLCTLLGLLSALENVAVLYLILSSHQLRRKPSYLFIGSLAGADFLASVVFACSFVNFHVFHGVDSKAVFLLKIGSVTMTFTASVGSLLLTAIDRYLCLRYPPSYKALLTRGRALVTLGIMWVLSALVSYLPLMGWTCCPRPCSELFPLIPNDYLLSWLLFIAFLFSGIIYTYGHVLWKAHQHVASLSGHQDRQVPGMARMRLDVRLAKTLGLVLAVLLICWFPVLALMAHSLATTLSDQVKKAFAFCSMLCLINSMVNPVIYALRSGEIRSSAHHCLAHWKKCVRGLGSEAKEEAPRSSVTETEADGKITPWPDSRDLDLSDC
hCB1, sequence (P21554 whole entry): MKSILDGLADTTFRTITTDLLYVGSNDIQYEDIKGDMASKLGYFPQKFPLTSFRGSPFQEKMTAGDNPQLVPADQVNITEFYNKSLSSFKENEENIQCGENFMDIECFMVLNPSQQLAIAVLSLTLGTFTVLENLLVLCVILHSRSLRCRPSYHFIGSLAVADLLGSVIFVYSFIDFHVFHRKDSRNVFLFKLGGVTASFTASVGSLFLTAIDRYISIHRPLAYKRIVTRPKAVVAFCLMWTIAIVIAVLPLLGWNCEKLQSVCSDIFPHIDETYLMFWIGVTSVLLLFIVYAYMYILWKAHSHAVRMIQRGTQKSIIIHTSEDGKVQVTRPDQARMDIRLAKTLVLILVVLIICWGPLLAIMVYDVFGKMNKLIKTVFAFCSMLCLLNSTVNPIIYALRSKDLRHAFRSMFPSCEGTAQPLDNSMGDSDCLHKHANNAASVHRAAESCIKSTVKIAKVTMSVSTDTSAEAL

As to `O=C1CC[C@@]2(O)[C@H]3Cc4ccc(O)c5c4[C@@]2(CCN3CC2CC2)[C@H]1O5` [Naltrexone, naltrexone, reference compound], the consumption of ethanol entry in series [1] is “at higher doses, was also able to reduce ethanol intake”.

As to `CC(C)(N[C@@H]1C[C@H](c2cccc(OC(F)(F)F)c2)N(c2ccc(C(F)(F)F)cc2)C1=O)c1ccc(C(F)(F)F)nc1.Cc1ccc(S(=O)(=O)O)cc1` [drawing 21], the “FST (MED mg/kg p.o.)” value in the series with NIH male Swiss mice is on record as 1 mg/kg. In addition, the bioavailability in “Bioavailability, dog” is 60%; in “Bioavailability, rat”, 65%. The “Inverse Agonist Potency CB2 (Kb, nM)” value on human CB2 receptor is given as “No measurable activity”.

Turning to `CC(C)(N[C@@H]1C[C@H](c2cccc(OC(F)(F)F)c2)N(c2ccc(C(F)(F)F)cc2)C1=O)c1ccc(C(F)(F)F)nc1.Cl` [drawing 22], on human CB2 receptor, the “Inverse Agonist Potency CB2 (Kb, nM)” value is on record as “No measurable activity”.

In the case of `CC(C)(N[C@H]1C[C@H](c2cccc(OC(F)(F)F)c2)N(c2ccc(C(F)(F)F)cc2)C1=O)c1ccc(C(F)(F)F)nc1.Cc1ccc(S(=O)(=O)O)cc1` [drawing 23], at hCB1, the antagonist dissociation constant (Kb) worked out at 3 nM. Besides, the “Inverse Agonist Potency CB2 (Kb, nM)” value at human CB2 receptor is “No measurable activity”.

Regarding `CC(C)(N[C@H]1C[C@H](c2cccc(OC(F)(F)F)c2)N(c2ccc(C(F)(F)F)cc2)C1=O)c1ccc(C(F)(F)F)nc1.Cl` [drawing 24], at hCB1, the Kb was 8.8 nM. For the same compound, the “Inverse Agonist Potency CB2 (Kb, nM)” value at human CB2 receptor was “No measurable activity”.

The bioavailability is dose-corrected exposure relative to a reference, in per cent. A high value points to good availability. By Kb is commonly meant the equilibrium dissociation constant of an antagonist, usually derived from a functional assay.
